Assay results from PubChem BioAssay AID248 (DTP/NCI, 2004).
“And” between values parts separate entries of the source, which are not always exact repeats. Identical values can stand only once. Inconclusive results and toxic doses are left out. No stated cut-off is given here; in the data, active means T/C of 150% or more; inactive means T/C below 125%.

Test system: L1210 leukemia ip in BDF1 mice, survival T/C
Test: NCI In Vivo Anticancer Drug Screen. Data for tumor model L1210 Leukemia (intraperitoneal) in B6D2F1 (BDF1) mice
Settings: higher = longer survival
Summary of the method: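 Transplantable tumor model; survival measured in treated vs vehicle control mice. Value = treated/control.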

Measured: T/C

N[C@H](C(=O)O)[C@@H]1CC(Cl)=NO1
inactive: endpoint: mean survival time, dose: 0.1 mg/kg/injection, schedule: Q03HX024 (ip), vehicle: saline 120 % of control | endpoint: mean survival time, dose: 0.39 mg/kg/injection, schedule: Q01DX009 (sc), vehicle: saline 119 % of control and 121 % of control | endpoint: mean survival time, dose: 0.78 mg/kg/injection, schedule: Q01DX009 (oral), vehicle: saline 123 % of control | endpoint: mean survival time, dose: 1.0 mg/kg/injection, schedule: Q01DX009 (ip), vehicle: saline 123 % of control and 124 % of control | endpoint: mean survival time, dose: 3.12 mg/kg/injection, schedule: Q01DX001 (ip), vehicle: saline 107 % of control | endpoint: mean survival time, dose: 3.12 mg/kg/injection, schedule: Q04DX003 (ip), vehicle: saline 107 % of control | endpoint: mean survival time, dose: 6.2 mg/kg/injection, schedule: Q04DX003 (ip), vehicle: saline 115 % of control and 116 % of control | endpoint: mean survival time, dose: 6.25 mg/kg/injection, schedule: Q01DX001 (ip), vehicle: saline 112 % of control | endpoint: mean survival time, dose: 6.25 mg/kg/injection, schedule: Q01DX009 (oral), vehicle: saline 107 % of control and 110 % of control | endpoint: mean survival time, dose: 6.25 mg/kg/injection, schedule: Q01DX009 (sc), vehicle: saline 105 % of control | endpoint: mean survival time, dose: 12.5 mg/kg/injection, schedule: Q01DX001 (ip), vehicle: saline 119 % of control | endpoint: mean survival time, dose: 12.5 mg/kg/injection, schedule: Q01DX009 (sc), vehicle: saline 101 % of control | endpoint: mean survival time, dose: 12.5 mg/kg/injection, schedule: Q04DX003 (ip), vehicle: saline 109 % of control and 110 % of control | endpoint: mean survival time, dose: 16.0 mg/kg/injection, schedule: Q01DX009 (ip), vehicle: saline 102 % of control | endpoint: mean survival time, dose: 25.0 mg/kg/injection, schedule: Q01DX009 (sc), vehicle: saline 94 % of control and 95 % of control | endpoint: mean survival time, dose: 25.0 mg/kg/injection, schedule: Q04DX003 (ip), vehicle: saline 116 % of control and 120 % of control | endpoint: mean survival time, dose: 32.0 mg/kg/injection, schedule: Q01DX009 (ip), vehicle: saline 104 % of control and 115 % of control | endpoint: mean survival time, dose: 50.0 mg/kg/injection, schedule: Q04DX003 (ip), vehicle: saline 120 % of control and 123 % of control | endpoint: median survival time, dose: 0.25 mg/kg/injection, schedule: Q03HX024 (ip), vehicle: saline 117 % of control | endpoint: median survival time, dose: 0.5 mg/kg/injection, schedule: Q03HX016 (ip), vehicle: saline 124 % of control | endpoint: median survival time, dose: 1.0 mg/kg/injection, schedule: Q01DX009 (sc), vehicle: saline 122 % of control | endpoint: median survival time, dose: 1.0 mg/kg/injection, schedule: Q03HX008 (ip), vehicle: saline 120 % of control | endpoint: median survival time, dose: 2.0 mg/kg/injection, schedule: Q04DX003 (ip), vehicle: saline 106 % of control | endpoint: median survival time, dose: 3.12 mg/kg/injection, schedule: Q01DX009 (ip), vehicle: saline 94 % of control | endpoint: median survival time, dose: 4.0 mg/kg/injection, schedule: Q04DX003 (ip), vehicle: saline 110 % of control | endpoint: median survival time, dose: 4.0 mg/kg/injection, schedule: Q08DX002 (ip), vehicle: saline 104 % of control | endpoint: median survival time, dose: 8.0 mg/kg/injection, schedule: Q01DX001 (ip), vehicle: saline 100 % of control | endpoint: median survival time, dose: 8.0 mg/kg/injection, schedule: Q01DX001 (sc), vehicle: saline 114 % of control | endpoint: median survival time, dose: 8.0 mg/kg/injection, schedule: Q08DX002 (ip), vehicle: saline 114 % of control | endpoint: median survival time, dose: 12.5 mg/kg/injection, schedule: Q01DX001 (ip), vehicle: saline 115 % of control | endpoint: median survival time, dose: 12.5 mg/kg/injection, schedule: Q03HX024 (ip), vehicle: saline 93 % of control | endpoint: median survival time, dose: 16.0 mg/kg/injection, schedule: Q01DX001 (ip), vehicle: saline 99 % of control | endpoint: median survival time, dose: 16.0 mg/kg/injection, schedule: Q01DX001 (sc), vehicle: saline 105 % of control | endpoint: median survival time, dose: 16.0 mg/kg/injection, schedule: Q01DX009 (oral), vehicle: saline 94 % of control | endpoint: median survival time, dose: 16.0 mg/kg/injection, schedule: Q01DX009 (sc), vehicle: saline 109 % of control | endpoint: median survival time, dose: 16.0 mg/kg/injection, schedule: Q04DX003 (ip), vehicle: saline 120 % of control | endpoint: median survival time, dose: 16.0 mg/kg/injection, schedule: Q08DX002 (ip), vehicle: saline 106 % of control | endpoint: median survival time, dose: 25.0 mg/kg/injection, schedule: Q01DX001 (ip), vehicle: saline 108 % of control | endpoint: median survival time, dose: 32.0 mg/kg/injection, schedule: Q01DX001 (ip), vehicle: saline 113 % of control | endpoint: median survival time, dose: 32.0 mg/kg/injection, schedule: Q01DX001 (sc), vehicle: saline 107 % of control | endpoint: median survival time, dose: 32.0 mg/kg/injection, schedule: Q01DX009 (ip), vehicle: saline 103 % of control | endpoint: median survival time, dose: 32.0 mg/kg/injection, schedule: Q08DX002 (ip), vehicle: saline 114 % of control | endpoint: median survival time, dose: 50.0 mg/kg/injection, schedule: Q01DX001 (ip), vehicle: saline 122 % of control | endpoint: median survival time, dose: 64.0 mg/kg/injection, schedule: Q01DX001 (ip), vehicle: saline 113 % of control | endpoint: median survival time, dose: 64.0 mg/kg/injection, schedule: Q01DX001 (oral), vehicle: saline 112 % of control and 114 % of control | endpoint: median survival time, dose: 64.0 mg/kg/injection, schedule: Q01DX001 (sc), vehicle: saline 116 % of control | endpoint: median survival time, dose: 64.0 mg/kg/injection, schedule: Q08DX002 (ip), vehicle: saline 109 % of control | endpoint: median survival time, dose: 128.0 mg/kg/injection, schedule: Q01DX001 (ip), vehicle: saline 116 % of control | endpoint: median survival time, dose: 128.0 mg/kg/injection, schedule: Q01DX001 (oral), vehicle: saline 119 % of control | endpoint: median survival time, dose: 128.0 mg/kg/injection, schedule: Q01DX001 (sc), vehicle: saline 115 % of control | endpoint: median survival time, dose: 128.0 mg/kg/injection, schedule: Q08DX002 (ip), vehicle: saline 119 % of control | endpoint: median survival time, dose: 256.0 mg/kg/injection, schedule: Q01DX001 (ip), vehicle: saline 110 % of control | endpoint: median survival time, dose: 256.0 mg/kg/injection, schedule: Q01DX001 (oral), vehicle: saline 116 % of control | endpoint: median survival time, dose: 256.0 mg/kg/injection, schedule: Q01DX001 (sc), vehicle: saline 120 % of control | endpoint: median survival time, dose: 400.0 mg/kg/injection, schedule: Q01DX001 (ip), vehicle: saline 93 % of control | endpoint: median survival time, dose: 400.0 mg/kg/injection, schedule: Q08DX002 (ip), vehicle: saline 116 % of control
active: endpoint: mean survival time, dose: 0.39 mg/kg/injection, schedule: Q03HX024 (ip), vehicle: saline 194 % of control | endpoint: mean survival time, dose: 1.56 mg/kg/injection, schedule: Q01DX009 (oral), vehicle: saline 151 % of control | endpoint: mean survival time, dose: 4.0 mg/kg/injection, schedule: Q01DX009 (ip), vehicle: saline 152 % of control | endpoint: mean survival time, dose: 25.0 mg/kg/injection, schedule: Q03HX008 (ip), vehicle: saline 153 % of control | endpoint: median survival time, dose: 0.39 mg/kg/injection, schedule: Q03HX024 (ip), vehicle: saline 175 % of control | endpoint: median survival time, dose: 0.78 mg/kg/injection, schedule: Q01DX009 (ip), vehicle: saline 153 % of control | endpoint: median survival time, dose: 0.78 mg/kg/injection, schedule: Q03HX016 (ip), vehicle: saline 150 % of control | endpoint: median survival time, dose: 0.78 mg/kg/injection, schedule: Q03HX024 (ip), vehicle: saline 191 % of control | endpoint: median survival time, dose: 1.0 mg/kg/injection, schedule: Q03HX024 (ip), vehicle: saline 159 % of control | endpoint: median survival time, dose: 1.56 mg/kg/injection, schedule: Q03HX016 (ip), vehicle: saline 159 % of control | endpoint: median survival time, dose: 2.0 mg/kg/injection, schedule: Q03HX016 (ip), vehicle: saline 150 % of control | endpoint: median survival time, dose: 2.0 mg/kg/injection, schedule: Q03HX024 (ip), vehicle: saline 181 % of control | endpoint: median survival time, dose: 3.12 mg/kg/injection, schedule: Q03HX008 (ip), vehicle: saline 154 % of control | endpoint: median survival time, dose: 3.12 mg/kg/injection, schedule: Q03HX016 (ip), vehicle: saline 166 % of control | endpoint: median survival time, dose: 4.0 mg/kg/injection, schedule: Q01DX009 (ip), vehicle: saline 158 % of control | endpoint: median survival time, dose: 4.0 mg/kg/injection, schedule: Q03HX016 (ip), vehicle: saline 153 % of control | endpoint: median survival time, dose: 6.25 mg/kg/injection, schedule: Q03HX016 (ip), vehicle: saline 182 % of control | endpoint: median survival time, dose: 8.0 mg/kg/injection, schedule: Q01DX009 (ip), vehicle: saline 165 % of control | endpoint: median survival time, dose: 8.0 mg/kg/injection, schedule: Q01DX009 (sc), vehicle: saline 162 % of control | endpoint: median survival time, dose: 8.0 mg/kg/injection, schedule: Q03HX016 (ip), vehicle: saline 162 % of control | endpoint: median survival time, dose: 12.5 mg/kg/injection, schedule: Q03HX016 (ip), vehicle: saline 171 % of control | endpoint: median survival time, dose: 12.5 mg/kg/injection, schedule: Q04DX003 (ip), vehicle: saline 153 % of control | endpoint: median survival time, dose: 12.5 mg/kg/injection, schedule: Q08DX002 (ip), vehicle: saline 151 % of control | endpoint: median survival time, dose: 16.0 mg/kg/injection, schedule: Q03HX016 (ip), vehicle: saline 155 % of control | endpoint: median survival time, dose: 25.0 mg/kg/injection, schedule: Q04DX003 (ip), vehicle: saline 154 % of control | endpoint: median survival time, dose: 50.0 mg/kg/injection, schedule: Q04DX003 (ip), vehicle: saline 188 % of control | endpoint: median survival time, dose: 50.0 mg/kg/injection, schedule: Q08DX002 (ip), vehicle: saline 151 % of control

O=[N+]([O-])c1ccc(N=N/C(=N\Nc2ccccc2)c2ccccc2)cc1
inactive: endpoint: mean survival time, dose: 100.0 mg/kg/injection, schedule: Q01DX009 (ip), vehicle: Klucel (hydroxypropylcellulose) (HPC) 89 % of control | endpoint: mean survival time, dose: 200.0 mg/kg/injection, schedule: Q01DX009 (ip), vehicle: Klucel (hydroxypropylcellulose) (HPC) 89 % of control | endpoint: mean survival time, dose: 400.0 mg/kg/injection, schedule: Q01DX009 (ip), vehicle: Klucel (hydroxypropylcellulose) (HPC) 94 % of control
